From US20260217660A1, “INHIBITORS OF ACTIVIN RECEPTOR TYPE I (ACVRI) AND ACTIVIN RECEPTOR LIKE TYPE I (ACVRLI), AND METHODS USING SAME” (Baylor College of Medicine, priority 2023, published 2026) come the findings set out here.

The target of data set [1] is T1, ACVRL1 (Homo sapiens, UniProt P37023).
T1 construct: purchased ThermoFisher
Description: ThermoFisher (Lantha) kinase assay, inhibition of ACVRL1. The format is biochemical. The settings on record: in vitro, NA = not active at 1 μM.

Data set [2] addresses T2, ACVR1 (Homo sapiens, UniProt Q04771).
T2 construct: purchased ThermoFisher
T2 sequence (Q04771 21-509): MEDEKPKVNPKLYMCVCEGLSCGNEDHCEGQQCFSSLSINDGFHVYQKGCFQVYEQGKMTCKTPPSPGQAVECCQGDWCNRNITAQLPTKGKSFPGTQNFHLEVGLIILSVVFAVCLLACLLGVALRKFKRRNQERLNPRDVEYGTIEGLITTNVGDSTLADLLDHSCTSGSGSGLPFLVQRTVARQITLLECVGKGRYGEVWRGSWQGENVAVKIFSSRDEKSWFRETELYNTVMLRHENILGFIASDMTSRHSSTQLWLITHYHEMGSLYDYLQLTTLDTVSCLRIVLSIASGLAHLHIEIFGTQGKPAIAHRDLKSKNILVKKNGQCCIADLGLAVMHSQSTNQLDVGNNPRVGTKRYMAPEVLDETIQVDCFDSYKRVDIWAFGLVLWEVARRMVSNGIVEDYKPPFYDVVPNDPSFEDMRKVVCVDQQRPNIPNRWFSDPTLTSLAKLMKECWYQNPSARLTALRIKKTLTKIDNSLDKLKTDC
The experiment in a line: ThermoFisher (Lantha) kinase assay, inhibition of ACVR1. It is filed as biochemical. The settings on record: ThermoFisher Assay, in vitro.

The nature of data set [3]: Metabolic stability in human liver microsomes. It is filed as in vitro ADME. Conditions: some cells add hours in brackets. From the text: (§1) Exemplary compounds of the present disclosure have been evaluated for metabolic stability in mouse and human liver microsomes.
A short description of data set [4]: Metabolic stability in mouse liver microsomes. It is filed as in vitro ADME. Conditions: some cells add hours in brackets.
Excerpt: as §1

Data set [5] concerns the target T3, ACVR1^WT (Homo sapiens, UniProt Q04771).
T3 sequence (Q04771 21-509): T2 sequence (Q04771 21-509)
Description: Promega NanoBRET live-cell target engagement, ACVR1. It is filed as cell-based. Conditions: in cellulo; NI = No inhibition at 40 μM. An excerpt:
(§2) The Promega NanoBRET target engagement system involves cell-based competitive displacement of a fluorescent NanoBRET tracer bound reversibly to a NanoLuc fusion protein. Test compounds displace the tracer dependent on their affinity for the target and reduce […] the NanoBRET signal. […]

The target in data set [6] is T4, ACVR1^R206H (Homo sapiens, UniProt Q04771, R206H).
T4 sequence (Q04771 21-509 R206H): T2 sequence (Q04771 21-509) with R186H
Description: Promega NanoBRET live-cell target engagement, ACVR1 (R206H). The settings on record: in cellulo; NI = No inhibition at 40 μM. It is filed as cell-based.
Excerpt: as §2
In general terms: Bioluminescence resonance energy transfer reports proximity on the nanometre scale.

Substitutions are numbered along the chain they refer to. pIC50: −log10 of the molar value. Some results are limits rather than exact numbers.

T1 sequence (P37023 22-503): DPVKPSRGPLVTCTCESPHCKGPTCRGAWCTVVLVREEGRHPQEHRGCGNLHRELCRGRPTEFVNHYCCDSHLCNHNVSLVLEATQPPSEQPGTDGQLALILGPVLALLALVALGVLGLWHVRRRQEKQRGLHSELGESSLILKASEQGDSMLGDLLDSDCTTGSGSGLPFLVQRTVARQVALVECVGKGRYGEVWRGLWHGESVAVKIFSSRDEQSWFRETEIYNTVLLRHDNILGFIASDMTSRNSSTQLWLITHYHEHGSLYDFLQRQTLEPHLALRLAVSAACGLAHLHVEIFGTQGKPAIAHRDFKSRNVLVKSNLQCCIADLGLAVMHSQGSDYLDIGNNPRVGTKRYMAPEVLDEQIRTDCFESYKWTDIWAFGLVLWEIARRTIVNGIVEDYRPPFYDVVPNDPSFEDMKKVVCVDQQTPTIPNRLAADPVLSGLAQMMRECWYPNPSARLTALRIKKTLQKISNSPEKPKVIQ

In the case of “1-cyclopropyl-N-(3-(4-(2,3-dimethylphenyl)piperazin-1-yl)propyl)-2-(3,4,5-trimethoxyphenyl)-1H-benzo[d]imidazole-6-carboxamide [CDD-2468]”, the pIC50 is 5.39 in data set [1] and 6.87 in data set [2].
On to `CNC(=O)[C@H]1CC[C@H](n2c(-c3cc(I)c(OC)c(OC)c3)nc3ccc(C(=O)NCCCN4CCN(c5ccccc5)CC4)cc32)C1` [CDD-2205, 2-(3-iodo-4,5-dimethoxyphenyl)-1-((1S,3S)-3-(methylcarbamoyl)cyclopentyl)-N-(3-(4-phenylpiperazin-1-yl)propyl)-1H-benzo[d]imidazole-6-carboxamide], for which the pIC50 in data set [1] is 7.83; in data set [2], 8.43.
Take `CNC(=O)[C@H]1CC[C@H](n2c(-c3cc(OC)c(OC)c(OC)c3)nc3ccc(C(=O)NCCCN4CCN(c5ccccc5)CC4)cc32)C1` [CDD-2206, 1-((1S,3S)-3-(methylcarbamoyl)cyclopentyl)-N-(3-(4-phenylpiperazin-1-yl)propyl)-2-(3,4,5-trimethoxyphenyl)-1H-benzo[d]imidazole-6-carboxamide]: the results for the pIC50 in data set [1] and in data set [2] were 7.57 and 8.28, respectively.
On the same counts, the results for `CNC(=O)[C@H]1CC[C@H](n2c(-c3cc(OC)c(OC)c(OC)c3)nc3ccc(C(=O)NC4COc5ccc(Cl)cc54)cc32)C1` (stereo partly drawn) [CDD-2233, N-(5-chloro-2,3-dihydrobenzofuran-3-yl)-1-((1S,3S)-3-(methylcarbamoyl)cyclopentyl)-2-(3,4,5-trimethoxyphenyl)-1H-benzo[d]imidazole-6-carboxamide] are 7.70 and 7.70.
`CNC(=O)[C@H]1C[C@H](n2c(-c3cc(OC)c(OC)c(OC)c3)nc3ccc(C(=O)NCCCN4CCN(c5ccccc5)CC4)cc32)C1` [CDD-2235, 1-((1r,3r)-3-(methylcarbamoyl)cyclobutyl)-N-(3-(4-phenylpiperazin-1-yl)propyl)-2-(3,4,5-trimethoxyphenyl)-1H-benzo[d]imidazole-6-carboxamide]: in data set [3], the “Metabolism HLM” value amounted to 9.7 min. In data set [4], the “Metabolism MLM” value stood at 5.7 min.
`COc1cc(-c2nc3ccc(C(=O)NCCCN4CCN(c5ccccc5)CC4)cc3[nH]2)cc(OC)c1OC` [CDD-2236, N-(3-(4-phenylpiperazin-1-yl)propyl)-2-(3,4,5-trimethoxyphenyl)-1H-benzo[d]imidazole-6-carboxamide]: the figures for the pIC50 in data set [1] and in data set [2] were 6.27 and 7.18, respectively.
On the same counts, the results for `CNC(=O)[C@H]1C[C@H](n2c(-c3cc(OC)c(OC)c(OC)c3)nc3ccc(C(=O)NCCCN4CCN(c5cccc(C)c5C)CC4)cc32)C1` [CDD-2341, N-(3-(4-(2,3-dimethylphenyl)piperazin-1-yl)propyl)-1-((1r,3r)-3-(methylcarbamoyl)cyclobutyl)-2-(3,4,5-trimethoxyphenyl)-1H-benzo[d]imidazole-6-carboxamide] are 7.91 and 8.44.
For `COc1cc(-c2nc3ccc(C(=O)NCCC(=O)N4CCN(c5cccc(C)c5C)CC4)cc3n2C2CCC2)cc(OC)c1OC` [CDD-2467, 1-cyclobutyl-N-(3-(4-(2,3-dimethylphenyl)piperazin-1-yl)-3-oxopropyl)-2-(3,4,5-trimethoxyphenyl)-1H-benzo[d]imidazole-6-carboxamide], in data set [3], the “Metabolism HLM” value stood at 13.6 min. Also, the “Metabolism MLM” value in data set [4] is 9.3 min.
Turning to `COc1cc(OC)cc(-c2nc3ccc(C(=O)NCCCN4CCN(c5cccc(C)c5C)CC4)cc3n2C2CCC2)c1` [CDD-2469, 1-cyclobutyl-2-(3,5-dimethoxyphenyl)-N-(3-(4-(2,3-dimethylphenyl)piperazin-1-yl)propyl)-1H-benzo[d]imidazole-6-carboxamide], the pIC50 in data set [5] was 5.33; in data set [6] it was 5.35.
As to `COc1ccc(-c2cccc(-c3nc4ccc(C(=O)NCCCN(C)C)cc4n3C3CCC3)n2)cc1` [CDD-2620, 1-cyclobutyl-N-(3-(dimethylamino)propyl)-2-(6-(4-methoxyphenyl)pyridin-2-yl)-1H-benzo[d]imidazole-6-carboxamide], the pIC50 in data set [1] was under 6.00.
On the same count and under the same terms, in the case of `CN(C)CCCNC(=O)c1ccc2nc(-c3cccc(-c4ccccc4)c3)n(C3CCC3)c2c1` [CDD-2621, 2-([1,1′-biphenyl]-3-yl)-1-cyclobutyl-N-(3-(dimethylamino)propyl)-1H-benzo[d]imidazole-6-carboxamide] it was under 6.00.
Turning to `CNC(=O)[C@@H]1CC[C@@H](n2c(-c3cc(OC)c(OC)c(OC)c3)nc3ccc(C(=O)NCCCN4CCN(c5ccccc5)CC4)cc32)C1` [CDD-2622, 1-((1R,3R)-3-(methylcarbamoyl)cyclopentyl)-N-(3-(4-phenylpiperazin-1-yl)propyl)-2-(3,4,5-trimethoxyphenyl)-1H-benzo[d]imidazole-6-carboxamide], the pIC50 in data set [1] was 7.94; in data set [2], 8.24.
In data set [1], `CN(C)CCCNC(=O)c1ccc2nc(-c3cncc4ccccc34)n(C3CCC3)c2c1` [CDD-2623, 1-cyclobutyl-N-(3-(dimethylamino)propyl)-2-(isoquinolin-4-yl)-1H-benzo[d]imidazole-6-carboxamide] showed a pIC50 of under 6.00.
With `CNC(=O)[C@H]1C[C@H](n2c(-c3cc(F)cc(OC)c3)nc3ccc(C(=O)NCCCN(C)C)cc32)C1` [CDD-2682, N-(3-(dimethylamino)propyl)-2-(3-fluoro-5-methoxyphenyl)-1-((1r,3r)-3-(methylcarbamoyl)cyclobutyl)-1H-benzo[d]imidazole-6-carboxamide], the pIC50 in data set [1] is 6.39; in data set [2] it was 7.06.
In the case of `CNC(=O)[C@H]1C[C@H](n2c(-c3ccc(F)c(OC)c3)nc3ccc(C(=O)NCCCN(C)C)cc32)C1` [CDD-2683, N-(3-(dimethylamino)propyl)-2-(4-fluoro-3-methoxyphenyl)-1-((1r,3r)-3-(methylcarbamoyl)cyclobutyl)-1H-benzo[d]imidazole-6-carboxamide], the negative logarithm of the IC50 (pIC50) is 6.72 in data set [1] and 7.11 in data set [2].
For `CNC(=O)[C@H]1C[C@H](n2c(-c3cccc(OC)c3)nc3ccc(C(=O)NCCCN(C)C)cc32)C1` [CDD-2684, N-(3-(dimethylamino)propyl)-2-(3-methoxyphenyl)-1-((1r,3r)-3-(methylcarbamoyl)cyclobutyl)-1H-benzo[d]imidazole-6-carboxamide] the same measures were 6.71 and 7.08.
For the compound `CNC(=O)[C@H]1C[C@H](n2c(-c3ccc(OC)c(OC)c3)nc3ccc(C(=O)NCCCN(C)C)cc32)C1` [CDD-2685, 2-(3,4-dimethoxyphenyl)-N-(3-(dimethylamino)propyl)-1-((1r,3r)-3-(methylcarbamoyl)cyclobutyl)-1H-benzo[d]imidazole-6-carboxamide], the pIC50 in data set [1] is 6.41; in data set [2], 6.92.
Take `COc1cc(-c2nc3ccc(C(=O)NCCCN4CCN(C)C(c5ccccc5)C4)cc3n2C2CCC2)cc(OC)c1OC` (stereo not shown) [CDD-2793, 1-cyclobutyl-N-(3-(4-methyl-3-phenylpiperazin-1-yl)propyl)-2-(3,4,5-trimethoxyphenyl)-1H-benzo[d]imidazole-6-carboxamide]: the pIC50 in data set [5] was 5.57; in data set [6], 5.37.
As for `COc1cc(-c2nc3ccc(C(=O)NCCN4CCN(C5CCCCC5)CC4)cc3n2C2CCC2)cc(OC)c1OC` [CDD-2794, 1-cyclobutyl-N-(2-(4-cyclohexylpiperazin-1-yl)ethyl)-2-(3,4,5-trimethoxyphenyl)-1H-benzo[d]imidazole-6-carboxamide], the values for the pIC50 in data set [5] and in data set [6] were 5.68 and 5.50, respectively.
On the same counts, the results for `COc1cc(-c2nc3ccc(C(=O)NCC4(O)CCN(Cc5ccccc5)CC4)cc3n2C2CCC2)cc(OC)c1OC` [CDD-2795, N-((1-benzyl-4-hydroxypiperidin-4-yl)methyl)-1-cyclobutyl-2-(3,4,5-trimethoxyphenyl)-1H-benzo[d]imidazole-6-carboxamide] are 6.41 and 6.34.

As a reminder, the pIC50 is the IC50 on a negative log10 scale, so that one unit is a factor of ten.
